Test results published in patent publication US6537998B1, “Gonadotropin-releasing hormone receptor antagonists and methods relating thereto” (Neurocrine Biosciences, Inc., priority 1999, dated 2003).
pKi: −log10 of the molar value.

The molecules below were run against T1, GnRH receptor (Homo sapiens, UniProt P30968) (assay: GnRH Receptor Membrane Binding Assay). Conditions: calculated from IC50 for displacement of radiolabeled ligand ([125I]-labeled GnRH peptide) from the GnRH receptor, Cheng-Prusoff.
T1 construct: expressed in transfected cells
T1 sequence (P30968 1-328): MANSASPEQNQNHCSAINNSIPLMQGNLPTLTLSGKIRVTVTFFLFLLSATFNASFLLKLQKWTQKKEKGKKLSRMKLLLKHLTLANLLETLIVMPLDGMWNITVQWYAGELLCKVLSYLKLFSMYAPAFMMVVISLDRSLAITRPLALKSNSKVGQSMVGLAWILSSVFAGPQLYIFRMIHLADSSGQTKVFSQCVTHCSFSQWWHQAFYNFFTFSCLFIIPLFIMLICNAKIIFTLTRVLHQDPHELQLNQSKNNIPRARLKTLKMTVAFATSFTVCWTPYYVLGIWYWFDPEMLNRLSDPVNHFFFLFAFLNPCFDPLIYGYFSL
Description: Activity of GnRH receptor antagonists are typically calculated from the IC50 as the concentration of a compound necessary to displace 50% of the radiolabeled ligand from the GnRH receptor, and is reported as a “Ki” value calculated by the following equation: [formula]
where L=radioligand and KD=affinity of radioligand for receptor (Cheng and Prusoff, Biochem. Pharmacol. 22:3099, 1973). GnRH receptor antagonists of this invention have a Ki of 100 μM or less. In a preferred embodiment of this invention, the GnRH receptor antagonists have a Ki of less than 10 μM, and more preferably less than 1 μM. More preferred compounds include: 1-1, 1-2-5, 12, 13-15, 19, 21, 27, 31, 32, 34, 37, 55, 58, 64, 73, 2B, 2D, 3A, 3B, 3D, 4A, 4B, 4C, 4D, 4G, 4H, 5A and 5B (see Examples below).
Radio-iodination of GnRH Peptide
The GnRH analog is labeled by the chloramine-T method. To 10 μg of peptide in 20 μl of 0.5M sodium phosphate buffer, pH 7.6, is added 1 mCi of Na125I, followed by 22.5 μg chloramine-T and the mixture vortexed for 20 sec. The reaction is stopped by the addition of 60 μg sodium metabisulfite and the free iodine is removed by passing the iodinated mixture through a C-8 Sep-Pak cartridge (Millipore Corp., Milford, Mass.). The peptide is eluted with a small volume of 80% acetonitrile/water. The recovered labeled peptide is further purified by reverse phase HPLC on a Vydac C-18 analytical column (The Separations Group, Hesperia, Calif.) on a Beckman 334 gradient HPLC system using a gradient of acetonitrile in 0.1% TFA. The purified radioactive peptide is stored in 0.1% BSA/20% acetonitrile/0.1% TFA at […] and can be used for up to 4 weeks.
GnRH Receptor Membrane Binding Assay
Cells stably, or transiently, transfected with GnRH receptor expression vectors are harvested, resuspended in 5% sucrose and homogenized using a polytron homogenizer (2×15 sec). Nuclei are removed by centrifugation (3000×g for 5 min.), and the supernatant centrifuged (20,000×g for 30 min, 4° C.) to collect the membrane fraction. The final membrane preparation is resuspended in binding buffer (10 mM Hepes (pH 7.5), 150 mM NaCl, and 0.1% BSA) and stored at −70° C. Binding reactions are performed in a Millipore MultiScreen 96-well filtration plate assembly with polyethylenimine coated GF/C membranes. The reaction is initiated by adding membranes (40 ug protein in 130 ul binding buffer) to 50 ul of [^125I]-labeled GnRH peptide (˜100,000 cpm), and 20 ul of competitor at varying concentrations. The reaction is terminated after 90 minutes by application of vacuum and washing (2×) with phosphate buffered saline. Bound radioactivity is measured using 96-well scintillation counting (Packard Topcount) or by removing the filters from the plate and direct gamma counting. Ki values are calculated from competition binding data using non-linear least squares regression using the Prism software package (GraphPad Software).

pKi, > 6.00:
COc1cccc(-c2c(C)n(Cc3ccccc3F)c3nc(C4(C)CCOC4=O)c(CN(C)Cc4ccccc4)n3c2=O)c1 (stereo not shown) [Example 1-21]
COC(=O)C(C)(C)c1nc2n(Cc3ccccc3F)c(C)c(-c3cccc(OC)c3)c(=O)n2c1CNCc1ccccn1 [Example 4G]
CCOC(=O)Cc1nc2n(Cc3ccccc3F)c(C)c(-c3cccc(OC)c3)c(=O)n2c1CN(C)Cc1ccccc1 [Example 5B, 2-ethoxycarbonylmethyl-3-{N-methyl-N-benzyl)-5-(3-methoxyphenyl)-6-methyl-7-(2-fluorobenzyl)imidazolo[1,2-a]pyrimid-4-one]
COc1cccc(-c2c(C)n(Cc3ccccc3F)c3nc(C(C)(C)C)c(CN(C)Cc4ccccn4)n3c2=O)c1 [Example 1-12]
CCOC(=O)Cc1nc2n(Cc3ccccc3F)c(C)c(-c3cccc(OC)c3)c(=O)n2c1CN(C)CCc1ccccn1 [Example 5A, 2-Ethoxycarbonylmethyl-3-{N-methyl-N-[2-(2-pyridyl)ethyl]aminomethyl}-5-(3-methoxyphenyl)-6-methyl-7-(2-fluorobenzyl)imidazolo[1,2-a]pyrimid-4-one]
Cc1c(-c2ccccc2F)c(=O)n2c(CN(C)CCc3ccccn3)c(C(C)(C)C)nc2n1Cc1ccccc1F [Example 1-55]
CCN(CC)CCN(C)Cc1c(C(C)(C)C)nc2n(Cc3ccccc3F)c(C)c(-c3ccc4c(c3)OCO4)c(=O)n12 [Example 1-73]
CC(=O)c1cccc(-c2c(C)n(Cc3ccccc3F)c3nc(C(C)(C)C)c(CN(C)Cc4ccccc4)n3c2=O)c1 [Example 1-31]
COc1cccc(-c2c(C)n(Cc3ccccc3F)c3nc(C(C)(C)C)c(CN(C)[C@H](C)c4ccccc4)n3c2=O)c1 [Example 1-37]
COc1cccc(-c2c(C)n(Cc3ccccc3F)c3nc(C4(C)CCOC4=O)c(CN(C)Cc4ccco4)n3c2=O)c1 (stereo not shown) [Example 1-27]
COc1cccc(-c2c(C)n(Cc3ccccc3F)c3nc(C(C)(C)C)c(CN(C)CCc4ccccn4)n3c2=O)c1 [Example 1-1, 2-(tert-butyl)-3-[N-methyl-N-(2-pyridylethyl)aminomethyl]-5-(3-methoxyphenyl)-6-methyl-7-(2-fluorobenzyl)immidazolo[1,2-a]pyrimid-4-one]
COC(=O)C(C)(C)c1nc2n(Cc3ccccc3F)c(C)c(-c3cccc(OC)c3F)c(=O)n2c1CN(C)CCc1ccccn1 [Example 4H]
Cc1c(-c2ccccc2)c(=O)n2c(CN(C)Cc3ccco3)c(C(C)(C)C)nc2n1Cc1ccccc1F [Example 1-19]
COC(=O)C(C)(C)c1nc2n(Cc3ccccc3F)c(C)c(-c3cccc(OC)c3)c(=O)n2c1CN(C)Cc1ccccc1 [Example 4A, 2-(1-methoxycarbonyl-1-methylethyl)-3-(N-methyl-N-benzylaminomethyl)-5-(3-methoxyphenyl)-6-methyl-7-(2-flurorbenzyl)imidazolo[1,2-a]pyrimid-4-one]
CC(=O)c1cccc(-c2c(C)n(Cc3ccccc3F)c3nc(C(C)(C)C)c(CN(C)CCc4ccccn4)n3c2=O)c1 [Example 1-32]
COC(=O)C(C)(C)c1nc2n(Cc3ccccc3F)c(C)c(-c3cccc(OC)c3)c(=O)n2c1CN(C)Cc1ccco1 [Example 4D]
